Laboratory results published in patent publication US20170370929A1, “POSITIVE ALLOSTERIC MODULATORS OF THE DELTA-OPIOID RECEPTOR” (BRISTOL-MYERS SQUIBB COMPANY, priority 2014, published 2017).

How the values were obtained:
δ receptor = δ receptor (Homo sapiens, UniProt P41143); experiment: PathHunter β-arrestin recruitment assay in CHO-OPRD1 cells; format: cell-based
μ receptor = μ receptor (Homo sapiens, UniProt P35372); experiment: PathHunter β-arrestin recruitment assay in CHO-OPRM1 cells; format: cell-based; conditions: PAM mode, up to the highest concentration tested (10 μM)
Sequence of μ receptor (P35372 whole entry): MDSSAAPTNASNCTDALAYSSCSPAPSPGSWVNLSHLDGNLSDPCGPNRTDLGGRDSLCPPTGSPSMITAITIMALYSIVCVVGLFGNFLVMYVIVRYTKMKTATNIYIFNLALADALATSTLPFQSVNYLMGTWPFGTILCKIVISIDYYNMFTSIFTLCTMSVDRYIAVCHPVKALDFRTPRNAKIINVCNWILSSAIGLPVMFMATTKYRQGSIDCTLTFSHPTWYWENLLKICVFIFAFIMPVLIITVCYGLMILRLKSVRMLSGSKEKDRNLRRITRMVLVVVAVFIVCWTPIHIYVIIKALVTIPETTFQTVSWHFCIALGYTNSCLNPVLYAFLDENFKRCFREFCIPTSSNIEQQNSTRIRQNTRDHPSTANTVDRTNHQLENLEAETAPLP

Sequence of δ receptor (P41143 whole entry): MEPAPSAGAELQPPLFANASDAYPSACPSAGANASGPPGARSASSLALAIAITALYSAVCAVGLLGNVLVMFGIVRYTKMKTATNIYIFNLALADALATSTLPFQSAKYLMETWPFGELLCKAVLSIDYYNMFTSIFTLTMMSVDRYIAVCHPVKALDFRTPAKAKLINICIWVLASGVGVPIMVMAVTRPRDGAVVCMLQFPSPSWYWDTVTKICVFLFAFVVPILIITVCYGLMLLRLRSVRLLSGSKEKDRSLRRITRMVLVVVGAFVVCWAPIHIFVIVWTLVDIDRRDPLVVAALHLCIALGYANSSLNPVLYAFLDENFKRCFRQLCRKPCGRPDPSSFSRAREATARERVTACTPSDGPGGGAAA

Structure (SMILES)	EC50 (δ receptor; PAM mode, in the presence of an EC20 of leu-enkephalin, CHO-OPRD1 cells)	selectivity compared with PAM activity at the μ receptor (δ receptor; β-arrestin recruitment assay, δ versus μ receptor PAM activity)	PAM activity at the δ receptor (in words) (δ receptor; PAM mode, β-arrestin recruitment)	PAM activity at the μ receptor (μ receptor)
CC1(C)CC(=O)C2=C(C1)OC1=C(C(=O)CC(C)(C)C1)C2c1ccc(OCc2ccccc2)cc1 [Analog 1]	200 nM	30 fold	–	–
CC1(C)CC(=O)C2=C(C1)OC1=C(C(=O)CC(C)(C)C1)C2c1ccc(OCc2ccccc2Br)cc1 [Analog 10, 9-(4-((2-bromobenzyl)oxy)phenyl)-3,3,6,6-tetramethyl-3,4,5,6,7,9-hexahydro-1H-xanthene-1,8(2H)-dione]	–	–	equipotent PAM activity to 2	no observable PAM activity
